# From ChEMBL document CHEMBL1201862, “PubChem BioAssay data set” (2004)
# Calls of active or inactive are those of the source.
# How the values were obtained:
# [1] = target: T1, Alkaline phosphatase, tissue-nonspecific isozyme (Homo sapiens, UniProt P05186); assay: potency against alkaline phosphatase TNAP – biochemical, luminescent, dose response, SAR follow-up (AID 1056)
# T1 sequence (P05186 whole entry): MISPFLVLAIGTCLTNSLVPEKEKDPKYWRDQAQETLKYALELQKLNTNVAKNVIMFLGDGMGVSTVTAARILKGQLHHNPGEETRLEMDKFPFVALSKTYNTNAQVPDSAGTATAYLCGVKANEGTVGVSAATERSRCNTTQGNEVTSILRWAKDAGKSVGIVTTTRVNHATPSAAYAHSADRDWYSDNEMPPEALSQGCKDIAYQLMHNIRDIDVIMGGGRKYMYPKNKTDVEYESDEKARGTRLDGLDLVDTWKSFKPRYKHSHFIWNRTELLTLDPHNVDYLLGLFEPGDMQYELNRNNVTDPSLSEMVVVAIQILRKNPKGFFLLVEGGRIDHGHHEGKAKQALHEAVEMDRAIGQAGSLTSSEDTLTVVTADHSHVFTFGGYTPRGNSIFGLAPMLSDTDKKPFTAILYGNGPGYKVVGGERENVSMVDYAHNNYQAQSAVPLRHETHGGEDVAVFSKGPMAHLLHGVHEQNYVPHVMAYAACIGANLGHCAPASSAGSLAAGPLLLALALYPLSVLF
# [2] = target: Glyceraldehyde-3-phosphate dehydrogenase (Homo sapiens, UniProt P04406)
# Chain of Glyceraldehyde-3-phosphate dehydrogenase (P04406 whole entry): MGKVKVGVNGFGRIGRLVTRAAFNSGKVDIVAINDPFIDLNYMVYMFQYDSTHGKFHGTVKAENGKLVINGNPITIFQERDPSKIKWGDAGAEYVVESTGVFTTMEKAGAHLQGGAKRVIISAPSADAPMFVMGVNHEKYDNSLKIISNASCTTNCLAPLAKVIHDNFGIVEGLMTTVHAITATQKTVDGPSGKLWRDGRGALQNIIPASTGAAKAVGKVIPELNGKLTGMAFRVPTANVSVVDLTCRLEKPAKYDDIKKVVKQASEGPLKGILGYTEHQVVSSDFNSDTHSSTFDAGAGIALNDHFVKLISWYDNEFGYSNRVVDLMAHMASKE
# [3] = target: Alkaline phosphatase, placental type (Homo sapiens, UniProt P05187); assay: human placental alkaline phosphatase inhibition – biochemical, luminescence, confirmation (AID 1512); type: functional
# Chain of Alkaline phosphatase, placental type (P05187 whole entry): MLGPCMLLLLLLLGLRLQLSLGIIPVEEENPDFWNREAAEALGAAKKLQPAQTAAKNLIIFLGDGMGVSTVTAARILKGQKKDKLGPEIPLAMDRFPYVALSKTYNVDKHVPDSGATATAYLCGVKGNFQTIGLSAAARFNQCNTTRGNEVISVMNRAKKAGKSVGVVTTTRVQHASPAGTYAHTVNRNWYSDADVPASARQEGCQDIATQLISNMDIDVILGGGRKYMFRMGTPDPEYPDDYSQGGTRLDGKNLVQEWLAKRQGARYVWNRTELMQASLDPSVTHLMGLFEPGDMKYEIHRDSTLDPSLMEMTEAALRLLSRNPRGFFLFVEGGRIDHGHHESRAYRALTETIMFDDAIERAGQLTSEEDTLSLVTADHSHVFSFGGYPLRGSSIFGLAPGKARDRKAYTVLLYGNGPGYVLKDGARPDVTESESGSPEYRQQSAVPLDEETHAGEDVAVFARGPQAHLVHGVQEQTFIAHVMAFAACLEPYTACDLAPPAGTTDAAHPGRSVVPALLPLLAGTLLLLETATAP
# [4] = HEK-293T viability loss after treatment – luminescence, T-cell screen hits, cytotoxicity control for TCR NF-kB inhibitor project, dose response (AID 489026); type: functional, cell-based;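 also: cells exposed to compound about 14 hours before the viability readout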
# [5] = target: T2, E3 ubiquitin-protein ligase XIAP (Homo sapiens, UniProt P98170); assay: Counter Screen using XIAP-Bir3 for Chemical Antagonists of Bir1/2 domains of IAP-family anti-apoptotic proteins. [Related pubchem assays (depositor defined):AID1018, AID1449, AID1514, AID1638, AID1749, AID1750, AID488957, AID488963]
# T2 sequence (P98170 whole entry): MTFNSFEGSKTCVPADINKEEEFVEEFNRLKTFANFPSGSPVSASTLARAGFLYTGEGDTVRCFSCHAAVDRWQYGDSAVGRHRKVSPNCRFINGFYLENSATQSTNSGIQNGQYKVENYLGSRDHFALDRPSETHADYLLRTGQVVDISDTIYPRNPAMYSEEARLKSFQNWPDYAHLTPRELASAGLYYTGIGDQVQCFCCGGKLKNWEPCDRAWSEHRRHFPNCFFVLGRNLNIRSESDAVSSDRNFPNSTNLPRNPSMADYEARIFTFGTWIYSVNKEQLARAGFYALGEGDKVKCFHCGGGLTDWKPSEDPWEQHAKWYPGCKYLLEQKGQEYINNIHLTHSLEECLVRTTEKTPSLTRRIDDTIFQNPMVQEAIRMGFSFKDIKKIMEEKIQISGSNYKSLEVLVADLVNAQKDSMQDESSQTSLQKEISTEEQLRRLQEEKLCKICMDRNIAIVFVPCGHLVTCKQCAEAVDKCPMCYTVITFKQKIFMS
# [6] = target: T2, E3 ubiquitin-protein ligase XIAP; assay: small molecules displacing peptide from XIAP – biochemical, IAP family, fluorescence polarization (AID 1018); type: functional
# [7] = viability of PTEN-deleted HCT116 cells – cell-based, HCT116 PTEN knockout, dose response (AID 1047); type: functional;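 also: HCT116 colon tumor cells with PTEN knocked out; cells exposed to compound for 60 hours before readout; potency for loss of cell viability measured by luminescence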
# [8] = NIH3T3 cell viability loss – ATP luminescence, mouse fibroblasts, counter-screen, dose response (AID 2010); type: functional, cell-based;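 also: cells exposed to compound for about 90 hours before reading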
# Protein RecA = target: T3, Protein RecA (Mycobacterium tuberculosis, UniProt P9WHJ3); assay: Fluorescence Cell-Free Homogeneous Dose Retest to Identify Inhibitors of RecA-Intein Splicing Activity. [Related pubchem assays (depositor defined):AID2097, AID2223, AID489010, AID492950]; type: functional
# T3 sequence (P9WHJ3 whole entry): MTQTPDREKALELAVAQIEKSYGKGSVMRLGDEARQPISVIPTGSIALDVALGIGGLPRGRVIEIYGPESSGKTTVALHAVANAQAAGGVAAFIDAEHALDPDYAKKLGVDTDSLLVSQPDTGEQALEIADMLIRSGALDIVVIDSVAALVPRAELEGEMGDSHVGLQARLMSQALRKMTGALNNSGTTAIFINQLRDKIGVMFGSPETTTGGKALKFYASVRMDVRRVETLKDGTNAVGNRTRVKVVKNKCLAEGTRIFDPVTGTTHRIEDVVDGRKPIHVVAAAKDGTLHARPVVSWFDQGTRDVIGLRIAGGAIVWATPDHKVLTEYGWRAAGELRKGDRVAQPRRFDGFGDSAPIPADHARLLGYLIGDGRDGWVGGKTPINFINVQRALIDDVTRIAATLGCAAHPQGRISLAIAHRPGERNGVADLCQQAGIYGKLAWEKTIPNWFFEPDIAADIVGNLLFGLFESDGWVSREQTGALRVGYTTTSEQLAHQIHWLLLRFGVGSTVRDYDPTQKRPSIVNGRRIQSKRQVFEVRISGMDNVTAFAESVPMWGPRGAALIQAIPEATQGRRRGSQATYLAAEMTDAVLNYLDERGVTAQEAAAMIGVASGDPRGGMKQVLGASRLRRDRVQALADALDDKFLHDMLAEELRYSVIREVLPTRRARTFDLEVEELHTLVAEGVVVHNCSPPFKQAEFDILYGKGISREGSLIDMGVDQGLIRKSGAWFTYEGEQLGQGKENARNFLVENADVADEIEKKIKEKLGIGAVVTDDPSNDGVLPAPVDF
# BJ [9] = assay: BJ-TERT fibroblast viability loss – cell-based, RAS-independent, luminescence, dose response (AID 1933); type: functional; settings: Homo sapiens
# BJ [10] = assay: BJ-TERT-LT-ST fibroblast viability loss – cell-based, RAS-independent, luminescence, dose response (AID 1935); type: functional; settings: Homo sapiens;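 also: BJ fibroblasts immortalized with TERT plus LT and ST oncogenes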
# BJ [11] = assay: cells; type: functional, cell-based; settings: Homo sapiens
# [12] = Fluorescence-based cell-based high throughput dose response assay for inhibitors of the interaction of nucleotide-binding oligomerization domain containing 2 (NOD2) and the receptor-interacting serine-threonine kinase 2 (RIPK2).; type: functional; settings: Homo sapiens
# [13] = DRD fibroblast viability loss – cell-based, non-viral oncogenic, luminescence, dose response (AID 1934); type: functional; settings: Homo sapiens
# [14] = target: G-protein coupled receptor 55 (Homo sapiens, UniProt Q9Y2T6); assay: selective activators of receptor GPR55 – imaging, U2OS cells, beta-arrestin-GFP redistribution, primary screen (AID 1961); type: functional
# Chain of G-protein coupled receptor 55 (Q9Y2T6 whole entry): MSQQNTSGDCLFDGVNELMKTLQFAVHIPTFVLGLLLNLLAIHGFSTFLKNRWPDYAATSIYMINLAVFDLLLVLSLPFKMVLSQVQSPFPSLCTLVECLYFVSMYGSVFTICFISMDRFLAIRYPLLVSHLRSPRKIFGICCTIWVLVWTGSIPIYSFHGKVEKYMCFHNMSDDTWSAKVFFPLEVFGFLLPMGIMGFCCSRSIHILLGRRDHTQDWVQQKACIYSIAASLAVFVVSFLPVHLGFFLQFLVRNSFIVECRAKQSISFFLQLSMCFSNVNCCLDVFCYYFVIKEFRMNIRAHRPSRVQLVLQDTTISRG
# Integrin alpha-4 = Integrin alpha-4 (Homo sapiens, UniProt P13612); assay: allosteric modulators of alpha4 integrin VLA-4 – cell-based, LIBS antibody binding, flow cytometry, SAR follow-up (AID 488791); type: functional
# Chain of Integrin alpha-4 (P13612 whole entry): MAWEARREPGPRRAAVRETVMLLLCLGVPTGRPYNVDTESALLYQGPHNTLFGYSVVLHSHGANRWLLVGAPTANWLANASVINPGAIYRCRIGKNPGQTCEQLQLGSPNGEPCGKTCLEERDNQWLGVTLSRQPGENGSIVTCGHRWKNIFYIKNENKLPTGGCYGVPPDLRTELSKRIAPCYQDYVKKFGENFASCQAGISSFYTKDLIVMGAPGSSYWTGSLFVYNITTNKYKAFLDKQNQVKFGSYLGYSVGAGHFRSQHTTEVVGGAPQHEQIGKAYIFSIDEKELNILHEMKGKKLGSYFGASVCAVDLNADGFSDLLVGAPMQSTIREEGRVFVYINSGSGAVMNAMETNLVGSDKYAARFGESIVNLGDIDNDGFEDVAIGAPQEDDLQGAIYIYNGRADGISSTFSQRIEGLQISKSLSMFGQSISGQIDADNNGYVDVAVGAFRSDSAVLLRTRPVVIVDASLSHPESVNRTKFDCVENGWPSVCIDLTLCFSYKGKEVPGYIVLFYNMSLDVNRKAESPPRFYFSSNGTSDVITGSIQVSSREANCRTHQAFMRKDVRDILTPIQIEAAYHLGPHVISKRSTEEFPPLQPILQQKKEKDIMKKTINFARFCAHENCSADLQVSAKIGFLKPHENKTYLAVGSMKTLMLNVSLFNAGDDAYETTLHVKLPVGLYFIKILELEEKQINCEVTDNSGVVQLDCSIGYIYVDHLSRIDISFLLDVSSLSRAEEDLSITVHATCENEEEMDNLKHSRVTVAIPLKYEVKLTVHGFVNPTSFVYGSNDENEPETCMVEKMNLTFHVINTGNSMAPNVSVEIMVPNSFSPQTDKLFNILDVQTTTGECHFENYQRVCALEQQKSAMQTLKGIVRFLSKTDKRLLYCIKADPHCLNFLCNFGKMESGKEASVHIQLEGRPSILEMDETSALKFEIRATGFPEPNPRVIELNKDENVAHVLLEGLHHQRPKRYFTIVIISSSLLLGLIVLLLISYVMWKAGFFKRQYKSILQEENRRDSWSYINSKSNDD
# Hexokinase HKDC1 = target: T4, Hexokinase HKDC1 (Homo sapiens, UniProt Q2TB90); assay: inhibition of HKDC1 glucose phosphorylation – biochemical, W721R variant, dose response (AID 504729); type: functional
# T4 sequence (Q2TB90 whole entry): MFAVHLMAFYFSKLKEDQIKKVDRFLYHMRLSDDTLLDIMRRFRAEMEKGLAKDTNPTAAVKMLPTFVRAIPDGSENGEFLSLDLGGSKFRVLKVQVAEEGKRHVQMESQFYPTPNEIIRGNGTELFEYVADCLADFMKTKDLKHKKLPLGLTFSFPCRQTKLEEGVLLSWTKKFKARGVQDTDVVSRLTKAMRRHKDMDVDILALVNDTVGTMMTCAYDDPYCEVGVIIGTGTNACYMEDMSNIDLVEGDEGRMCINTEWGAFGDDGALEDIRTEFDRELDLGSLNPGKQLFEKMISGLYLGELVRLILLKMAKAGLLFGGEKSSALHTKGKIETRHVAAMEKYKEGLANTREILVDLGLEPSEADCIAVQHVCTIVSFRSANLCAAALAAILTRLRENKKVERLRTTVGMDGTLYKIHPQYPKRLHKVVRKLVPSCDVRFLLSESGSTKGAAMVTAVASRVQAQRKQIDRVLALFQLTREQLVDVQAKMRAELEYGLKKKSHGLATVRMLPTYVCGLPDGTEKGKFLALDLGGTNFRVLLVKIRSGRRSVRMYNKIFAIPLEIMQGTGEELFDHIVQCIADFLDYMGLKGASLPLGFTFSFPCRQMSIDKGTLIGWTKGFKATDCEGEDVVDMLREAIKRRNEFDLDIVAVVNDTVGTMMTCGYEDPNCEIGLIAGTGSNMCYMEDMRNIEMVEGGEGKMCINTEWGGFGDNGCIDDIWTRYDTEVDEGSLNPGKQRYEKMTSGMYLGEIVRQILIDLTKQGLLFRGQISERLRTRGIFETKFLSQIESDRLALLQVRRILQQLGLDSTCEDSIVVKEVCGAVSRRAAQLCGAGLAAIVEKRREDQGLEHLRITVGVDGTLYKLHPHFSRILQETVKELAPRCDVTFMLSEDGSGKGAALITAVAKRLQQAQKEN
# [15] = Trypanosoma cruzi growth suppression in host cells – NIH3T3 host cells, beta-gal luminescence, confirmation (AID 2044); type: functional, cell-based;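 also: intracellular parasites grown in NIH/3T3 mouse fibroblasts as host cells; luminescent beta-galactosidase reporter signal from transgenic T. cruzi replicating inside host cells; inhibitors lower the luminescence signal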
# [16] = target: T5, Heat shock factor protein 1 (Mus musculus, UniProt P38532); assay: decrease of HSF1-responsive luciferase luminescence – cell-based, NIH3T3, dose retest, confirmation (AID 2382); type: functional;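 also: NIH3T3 fibroblasts with HSF1-driven luciferase reporter stressed by proteasome inhibitor MG132; luminescence from HSF1-driven luciferase expression after 8 hours of MG132 stress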
# T5 sequence (P38532 whole entry): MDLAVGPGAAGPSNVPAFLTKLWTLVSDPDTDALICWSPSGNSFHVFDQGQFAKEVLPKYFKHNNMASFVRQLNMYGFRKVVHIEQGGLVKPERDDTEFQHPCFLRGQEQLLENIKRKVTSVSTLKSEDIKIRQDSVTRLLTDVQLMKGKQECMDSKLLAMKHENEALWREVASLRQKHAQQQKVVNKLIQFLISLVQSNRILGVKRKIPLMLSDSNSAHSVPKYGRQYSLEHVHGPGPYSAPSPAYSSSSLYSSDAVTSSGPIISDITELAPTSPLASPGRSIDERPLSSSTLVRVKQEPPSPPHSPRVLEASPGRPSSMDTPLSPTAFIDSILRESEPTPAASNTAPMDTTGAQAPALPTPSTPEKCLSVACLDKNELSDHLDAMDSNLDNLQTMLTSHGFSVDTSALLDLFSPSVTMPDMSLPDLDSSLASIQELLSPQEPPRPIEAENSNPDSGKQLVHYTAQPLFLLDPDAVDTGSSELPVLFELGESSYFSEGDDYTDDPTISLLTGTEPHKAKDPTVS
# [17] = viability of HCT116 lacking mutant beta-catenin – cell-based, human colon tumor, dose response (AID 1045); type: functional;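 also: HCT116 colon tumor cells with beta catenin knocked out; cells exposed to compound for 60 hours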
# [18] = target: T6, Replicative DNA helicase DnaB (Mycobacterium tuberculosis, UniProt P9WMR3); assay: DnaB intein splicing inhibitors, dose response, biochemical, cell-free fluorescence (AID 449749); type: functional
# T6 sequence (P9WMR3 whole entry): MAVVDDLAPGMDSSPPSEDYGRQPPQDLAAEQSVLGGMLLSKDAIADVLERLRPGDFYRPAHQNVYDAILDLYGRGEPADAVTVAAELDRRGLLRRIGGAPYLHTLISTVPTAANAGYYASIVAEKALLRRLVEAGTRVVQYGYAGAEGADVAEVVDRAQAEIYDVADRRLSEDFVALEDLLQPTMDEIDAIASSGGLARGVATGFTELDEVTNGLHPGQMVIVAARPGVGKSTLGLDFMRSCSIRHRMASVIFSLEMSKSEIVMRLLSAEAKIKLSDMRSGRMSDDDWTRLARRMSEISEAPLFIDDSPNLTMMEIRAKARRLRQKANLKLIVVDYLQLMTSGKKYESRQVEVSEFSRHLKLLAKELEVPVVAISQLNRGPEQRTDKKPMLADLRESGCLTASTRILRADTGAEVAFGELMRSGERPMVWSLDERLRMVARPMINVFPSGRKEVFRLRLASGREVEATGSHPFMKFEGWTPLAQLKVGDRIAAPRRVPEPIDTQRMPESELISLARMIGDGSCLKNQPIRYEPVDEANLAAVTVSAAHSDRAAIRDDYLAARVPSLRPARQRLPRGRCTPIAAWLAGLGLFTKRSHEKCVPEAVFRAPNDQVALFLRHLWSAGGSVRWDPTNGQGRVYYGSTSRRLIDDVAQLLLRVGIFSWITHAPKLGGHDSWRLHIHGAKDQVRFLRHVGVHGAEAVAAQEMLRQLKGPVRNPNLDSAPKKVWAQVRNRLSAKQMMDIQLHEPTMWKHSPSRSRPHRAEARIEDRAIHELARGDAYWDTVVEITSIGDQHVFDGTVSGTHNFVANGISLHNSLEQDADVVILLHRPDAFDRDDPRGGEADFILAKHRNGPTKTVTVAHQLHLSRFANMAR
# [19] = target: Tyrosine-protein phosphatase non-receptor type 7 (Homo sapiens, UniProt P35236); assay: inhibition of hematopoietic tyrosine phosphatase HePTP – biochemical, set 2, SAR follow-up (AID 449736); type: functional
# Chain of Tyrosine-protein phosphatase non-receptor type 7 (P35236 whole entry): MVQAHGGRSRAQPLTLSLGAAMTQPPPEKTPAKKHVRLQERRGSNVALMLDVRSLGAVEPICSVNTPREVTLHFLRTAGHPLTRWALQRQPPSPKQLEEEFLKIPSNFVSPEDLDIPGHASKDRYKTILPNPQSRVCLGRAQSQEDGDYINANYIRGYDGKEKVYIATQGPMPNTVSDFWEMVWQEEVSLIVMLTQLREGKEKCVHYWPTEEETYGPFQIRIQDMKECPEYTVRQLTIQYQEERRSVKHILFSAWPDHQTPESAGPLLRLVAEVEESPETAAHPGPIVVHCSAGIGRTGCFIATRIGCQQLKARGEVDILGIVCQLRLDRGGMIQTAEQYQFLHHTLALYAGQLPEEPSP
smiles,measurement,setting,value
Cc1ccccc1OCc1nc2c3cnn(C)c3ncn2n1,IC50,[1],> 100 µM (inactive)
same,IC50,[2],> 100 µM (not active)
same,IC50,[3],> 100 µM (inactive)
COc1cccc(-c2cc(=O)c3cc(NC(=O)c4ccccc4)ccc3[nH]2)c1,IC50,[4],> 80 µM (inactive)
Cn1ncc(Cl)c1C(=O)N1CCN(C(=O)c2ccco2)CC1,IC50,[5],> 100 µM (inactive)
same,IC50,[6],> 100 µM (not active)
O=C(NCCCN1CCOCC1)c1ccc(Br)cc1Br,IC50,[5],> 100 µM (inactive)
same,IC50,[6],> 100 µM (not active)
COC(=O)[C@@H]1[C@@H](C(=O)OC)C2(c3ccccc3-c3ccccc32)N(c2ccc(Cl)cc2)N1C#N,EC50,[7],7.77 µM (active)
same,EC50,[8],6.87 µM (active)
same,EC50,Protein RecA,5.38 µM (active)
same,EC50,BJ [9],2.87 µM (inconclusive)
same,EC50,BJ [10],5.02 µM (active)
same,EC50,BJ [11],6.23 µM (active)
same,IC50,[12],1.77 µM (active)
same,EC50,[13],4.84 µM (active)
same,EC50,[14],> 32 µM (inactive)
same,EC50,Integrin alpha-4,> 49.2 µM (inactive)
same,IC50,Hexokinase HKDC1,20.4 µM (inactive)
same,EC50,[15],2.24 µM (active)
same,EC50,[16],8.22 µM (inconclusive)
same,EC50,[17],8.83 µM (active)
same,AC50,[18],> 120 µM (inactive)
NS(=O)(=O)c1ccc(NC(=O)N2CCN(Cc3cccnc3)CC2)cc1,IC50,[19],> 100 µM (inactive)
NS(=O)(=O)c1ccc(NC(=S)Nc2ccccc2)cc1,IC50,[19],25 µM (active)
